According to patent publication US20230107941A1, “HEPATITIS B CAPSID ASSEMBLY MODULATORS” (Venatorx Pharmaceuticals, Inc., priority 2019, published 2023):

Tests used:
[1] = system: HBV; assay: In vitro antiviral assay: anti-HBV replication in HepAD38 cells (extracellular HBV DNA by QPCR); assay type: cell-based, hepatitis B virus (genotype D, serotype ayw); conditions: Hepatitis B virus, HePAD38, 168 h, 7 days incubation, extracellular HBV DNA by QPCR, read-out: Anti-HBV EC50
Method: The anti-HBV activity of the Capsid Assembly Modulators (CAMs) was evaluated in a cell based assay utilizing the human hepatoma cell line HepAD38 (Ladner, S K., et al., 1998). HepAD38 cells were derived from the parental line, HepG2, that were stably transfected with a construct containing an HBV genome (genotype D, serotype ayw) under the control of a tetracycline repressible CMV promoter. Upon removal of tetracycline, viral pre-genomic RNA (pgRNA) and mRNAs are expressed and infectious viral particles are assembled and secreted into the culture medium providing a reliable, robust system to measure multiple steps of the HBV life cycle. Disruption of capsid formation results in reduced levels of DNA-containing virus particles that are released into the culture supernatant. To quantify the effect of CAMs on HBV replication, we developed a sensitive QPCR-based assay that measures extracellular HBV DNA levels upon treatment of HepAD38 cells with various concentrations of test compounds.
HepAD38 cells were maintained in DMEM/F12 medium containing 10% FBS, 400 μg/mL G418 and 0.3 μg/mL tetracycline (tet+ media) to maintain repression of HBV replication. To evaluate each compound, HepAD38 cells were seeded into 24-well collagen coated culture plates (Corning BioCoat) at a density of 200,000 cells per well in 1 mL of medium without tetracycline (tet-media) and allowed to adhere overnight at 37° C., 5% CO2 in a humidified incubator. The following day, media was refreshed and a dose range of each compound was prepared by performing 1 log10 serial dilutions in 100% DMSO at 200× the desired assay concentration. Dilutions were then added to the cells resulting in a final dose range of 1 μM to 10 pM and the plates were returned to the incubator. Following 7 days of incubation, culture supernatants were harvested and HBV DNA levels were evaluated by QPCR and compared to the vehicle treated control wells (i.e. DMSO alone).
To quantify HBV DNA levels, cell culture supernatants were diluted 1:10 in sterile, nuclease-free water (Gibco). The diluted supernatants were subsequently added to a PCR master mix containing 1× Roche Light Cycler Master Mix, 0.5 μM forward primer, 0.5 μM reverse primer (Fwd: 5′-[…] (SEQ ID NO 1); Rev: 5′-[…] (SEQ ID NO 2)), 0.2 μM Roche Universal Probe Library Probe 25. The volume was brought to 20 μL with nuclease-free water and amplification of the HBV target sequence was performed using a Roche LightCycler 480 QPCR instrument. PCR extended out to 45 cycles with each cycle consisting of a denaturation step at 95° C. for 10 sec., followed by an annealing step at 60° C. for 10 sec. and a brief extension step at 72° C. for 1 sec.
Extracellular HBV DNA levels, expressed in copies/mL, were determined by comparison to a standard curve (10^2-10^9 copies/mL) using the Roche LightCycler analysis software. These values were subsequently converted to percent inhibition of HBV replication by dividing the HBV DNA levels in the experimental samples with those obtained from the vehicle control (˜1-2×10^5 copies/mL). Potency, expressed as an EC50 (the effective concentration required to inhibit 50% of HBV replication), was calculated from the dose-response curve using a 4-parameter non-linear regression analysis (GraphPad Prism). The nucleoside analog inhibitor entecavir was used as a positive control to validate each assay run. The EC50 value of entecavir in the HepAD38 assay was 0.5 nM, as previously reported in the literature.

[2] = In vitro cytotoxicity assay (MTT cell viability) in HepG2 cells; assay type: cell-based, human; conditions: human
Method: To evaluate antiviral selectivity, the cytotoxic activity of each compound was determined using a standard cell viability assay performed on the parental HepG2 cell line. Cell viability was determined by measuring the conversion of 3-(4,5-dimethylthiazol-2-yl)-2,5-diphenyltetrazolium bromide (MTT) to the insoluble formazan salt crystal that occurs in live cells. Briefly, HepG2 cells were seeded in 96-well plates at a density of 20,000 cells per well in […] (complete growth medium) and allowed to adhere overnight in a 37° C., […] humidified incubator. The next day, test agents were prepared by performing 8 half-log10 serial dilutions in 100% DMSO at 200× the final desired concentration in the assay. Compounds were tested over a range of concentrations from 30 μM to 1.0 nM in the assay. HepG2 cells were incubated in the presence of various concentrations of CAMs for 7 days in a 37° C., […] humidified incubator. At the completion of the 7-day incubation period, MTT reagent was added to each well and the mixture was incubated for an additional 3-4 hours. At the completion of the incubation period, all wells were aspirated to remove the culture medium. The formazan crystals were solubilized from the cell monolayers with 100% DMSO. Plates were briefly mixed on an orbital shaker and absorbance was measured at 492 nm using a Perkin-Elmer EnVision multi-label plate reader. All absorbance values were converted to a percentage of the signal obtained from the vehicle treated controls. Absorbance values at 492 nm are directly proportional to the number of viable cells present in the sample. A CC50 value (cytotoxic concentration that results in loss of 50% cell viability) was calculated from the dose-response curve by 4-parameter, non-linear regression analysis using the GraphPad Prism software. The positive control compound, staurosporine, reduced the viability of HepG2 cells in a dose-dependent manner (CC50=100 nM).

Row | Compound | EC50 [1] [nM] | CC50 at 7 days [2] [nM]
1 | Cc1cc(NC(=O)c2c(C)c(C(=O)C(=O)N[C@]3(C)C[C@H](O)C3)n(C)c2-c2ccncc2)ccc1F [Example 161, N-(4-fluoro-3-methylphenyl)-5-(2-(((1s,3s)-3-hydroxy-1-methylcyclobutyl)amino)-2-oxoacetyl)-1,4-dimethyl-2-(pyridin-4-yl)-1H-pyrrole-3-carboxamide] | > 1000 | > 30000
2 | Cc1cc(NC(=O)c2c(C(C)C)c(C(=O)C(=O)N[C@H]3CC[C@@H](S(C)(=O)=O)CC3)n(C)c2C)ccc1F [Example 95, N-(4-fluoro-3-methylphenyl)-4-isopropyl-1,2-dimethyl-5-(2-(((1s,4s)-4-(methylsulfonyl)cyclohexyl)amino)-2-oxoacetyl)-1H-pyrrole-3-carboxamide] | > 1000 | > 30000
3 | Cc1cc(NC(=O)c2c(C)c(C(=O)C(=O)N[C@H]3CC[C@@H](S(C)(=O)=O)CC3)n(C)c2C2CCCC2)ccc1F [Example 131, 2-cyclopentyl-N-(4-fluoro-3-methylphenyl)-1,4-dimethyl-5-(2-(((1s,4s)-4-(methylsulfonyl)cyclohexyl)amino)-2-oxoacetyl)-1H-pyrrole-3-carboxamide] | > 1000 | 5000 to 30000
4 | Cc1cc(NC(=O)c2c(C)c(C(=O)C(=O)N[C@H]3CC[C@@H](O)CC3)n(C)c2C(C)C)ccc1F [Example 112, N-(4-fluoro-3-methylphenyl)-5-(2-(((1s,4s)-4-hydroxycyclohexyl)amino)-2-oxoacetyl)-2-isopropyl-1,4-dimethyl-1H-pyrrole-3-carboxamide] | 50 to 499 | > 30000
5 | Cc1cc(NC(=O)c2c(C)c(C(=O)C(=O)N[C@H]3[C@H]4CC[C@H](C4)[C@H]3CO)n(C)c2C)ccc1F [Example 21, N-(4-fluoro-3-methylphenyl)-5-(2-(((1S,2S,3R,4R)-3-(hydroxymethyl)bicyclo[2.2.1]heptan-2-yl)amino)-2-oxoacetyl)-1,2,4-trimethyl-1H-pyrrole-3-carboxamide] | < 50 | > 30000
6 | Cc1cc(NC(=O)c2c(C3CC3)c(C(=O)C(=O)NC3CCN(c4cccnn4)CC3)n(C)c2C)ccc1F [Example 103, 4-cyclopropyl-N-(4-fluoro-3-methylphenyl)-1,2-dimethyl-5-(2-oxo-2-((1-(pyridazin-3-yl)piperidin-4-yl)amino)acetyl)-1H-pyrrole-3-carboxamide] | 500 to 1000 | > 30000
7 | Cc1cc(NC(=O)c2c(C)c(C(=O)C(=O)N[C@H]3CC[C@@H](S(C)(=O)=O)CC3)n(C)c2C(C)C)ccc1F [Example 110, N-(4-fluoro-3-methylphenyl)-2-isopropyl-1,4-dimethyl-5-(2-(((1s,4s)-4-(methylsulfonyl)cyclohexyl)amino)-2-oxoacetyl)-1H-pyrrole-3-carboxamide] | 500 to 1000 | > 30000
8 | Cc1cc(NC(=O)c2c(C)c(C(=O)C(=O)NCC(C)(C)O)n(C)c2-c2ccncc2)ccc1F [Example 164, N-(4-fluoro-3-methylphenyl)-5-(2-((2-hydroxy-2-methylpropyl)amino)-2-oxoacetyl)-1,4-dimethyl-2-(pyridin-4-yl)-1H-pyrrole-3-carboxamide] | > 1000 | > 30000
9 | Cc1cc(NC(=O)c2c(C)c(C(=O)C(=O)NC3(CO)CCN(S(C)(=O)=O)CC3)n(C)c2C)ccc1F [Example 73, N-(4-fluoro-3-methylphenyl)-5-(2-((4-(hydroxymethyl)-1-(methylsulfonyl)piperidin-4-yl)amino)-2-oxoacetyl)-1,2,4-trimethyl-1H-pyrrole-3-carboxamide] | < 50 | > 30000
10 | Cc1cccc(NC(=O)c2c(C)c(C(=O)C(=O)NC(C)(C)C)n(C)c2C)c1F [Example 66, 5-(2-(tert-butylamino)-2-oxoacetyl)-N-(2-fluoro-3-methylphenyl)-1,2,4-trimethyl-1H-pyrrole-3-carboxamide] | < 50 | > 30000
11 | CCC1(NC(=O)C(=O)c2c(C)c(C(=O)Nc3ccc(F)c(C)c3)c(C)n2C)CCN(C(C)=O)CC1 [Example 41, 5-(2-((1-acetyl-4-ethylpiperidin-4-yl)amino)-2-oxoacetyl)-N-(4-fluoro-3-methylphenyl)-1,2,4-trimethyl-1H-pyrrole-3-carboxamide] | < 50 | > 30000
12 | Cc1c(C(=O)Nc2ccc(F)c(C#N)c2)c(C)n(C)c1C(=O)C(=O)N[C@]1(C)CC[C@@H](O)CC1 [Example 16, N-(3-cyano-4-fluorophenyl)-5-(2-(((1r,4r)-4-hydroxy-1-methylcyclohexyl)amino)-2-oxoacetyl)-1,2,4-trimethyl-1H-pyrrole-3-carboxamide] | < 50 | > 30000
13 | CCC1(NC(=O)C(=O)c2c(C)c(C(=O)Nc3ccc(F)c(C)c3)c(C)n2C)CCN(C(=O)c2cnn(C)c2)CC1 [Example 38, 5-(2-((4-ethyl-1-(1-methyl-1H-pyrazole-4-carbonyl)piperidin-4-yl)amino)-2-oxoacetyl)-N-(4-fluoro-3-methylphenyl)-1,2,4-trimethyl-1H-pyrrole-3-carboxamide] | < 50 | > 30000
14 | CCc1c(C(=O)Nc2ccc(F)c(C)c2)c(C)c(C(=O)C(=O)N[C@H]2CC[C@@H](S(C)(=O)=O)CC2)n1C [Example 106, 2-ethyl-N-(4-fluoro-3-methylphenyl)-1,4-dimethyl-5-(2-(((1s,4s)-4-(methylsulfonyl)cyclohexyl)amino)-2-oxoacetyl)-1H-pyrrole-3-carboxamide] | < 50 | > 30000
15 | CCc1c(C(=O)Nc2ccc(F)c(C)c2)c(C)n(C)c1C(=O)C(=O)NCC(C)(C)O [Example 88, 4-ethyl-N-(4-fluoro-3-methylphenyl)-5-(2-((2-hydroxy-2-methylpropyl)amino)-2-oxoacetyl)-1,2-dimethyl-1H-pyrrole-3-carboxamide] | 500 to 1000 | > 30000
16 | Cc1cc(NC(=O)c2c(C)c(C(=O)C(=O)N[C@H]3CC[C@@H](O)CC3)n(C)c2-c2cccnc2)ccc1F [Example 153, N-(4-fluoro-3-methylphenyl)-5-(2-(((1s,4s)-4-hydroxycyclohexyl)amino)-2-oxoacetyl)-1,4-dimethyl-2-(pyridin-3-yl)-1H-pyrrole-3-carboxamide] | > 1000 | > 30000
17 | Cc1cc(NC(=O)c2c(C)c(C(=O)C(=O)NCC(C)(C)O)n(C)c2-c2ccccn2)ccc1F [Example 159, N-(4-fluoro-3-methylphenyl)-5-(2-((2-hydroxy-2-methylpropyl)amino)-2-oxoacetyl)-1,4-dimethyl-2-(pyridin-2-yl)-1H-pyrrole-3-carboxamide] | > 1000 | > 30000
